Patent publication US20080085886A1, “Aza-benzofuranyl compounds and methods of use” (GENENTECH, INC., priority 2006, published 2008)
Where a name gives a salt, the structure may show the parent alone.

Legend:
[1] = system: HCT 116 human colorectal carcinoma / A375 human malignant melanoma cell lines; test: Cell proliferation assay (CellTiter-Glo), Example 3; assay type: cell-based; conditions: in either one of the cell lines (HCT 116, A375), 72 h
Description: Example 3 Cell Proliferation Assay
Compounds are tested in a cell proliferation assay using the following cell lines:
HCT 116 human colorectal carcinoma (ATCC)
(§1) A375 human malignant melanoma (ATCC)
(§2) Both cell lines are maintained in DMEM/F12 (1:1) media (Gibco) supplemented with 10% FCS at 37° C. in a 5% CO2 humidified incubator.
Cells are seeded in 96-well plates at 2,000 cells/well and after 24 hours they are exposed to different concentrations of compounds in 0.83% DMSO. Cells are grown for a further 72 h, and an equal volume of CellTiter-Glo reagent (Promega) is added to each well. This lyses the cells and generates a luminescent signal proportional to the amount of ATP released (and therefore proportional to the number of cells in the well) that can be detected using a multiwell luminometer.
EC50 values are calculated using the XLfit software package (version 2.0.5).

[2] = system: cellular p-ERK in HCT116 human colorectal carcinoma / A375 human malignant melanoma cell lines; test: Phospho-ERK cell-based assay (ELISA), Example 4; conditions: in either one of the cell lines (HCT116, A375), 2 h or 24 h exposure
Description: Example 4 Phospho-ERK Cell-Based Assay
Compounds are tested in a cell-based phospho-ERK ELISA using the following cell lines:
HCT116 human colorectal carcinoma (ATCC)
as §1, §2
Cells are seeded in 96-well plates at 2,000 cells/well and after 24 h they are exposed to different concentrations of compounds in 0.83% DMSO. Cells are grown for a further 2 h or 24 h, fixed with formaldehyde (2% final) and permeabilised with methanol. Following blocking with TBST-3% BSA, fixed cells are incubated with primary antibody (anti-phospho ERK from rabbit) over-night at 4° C. Cells are incubated with Propidium Iodide (DNA fluorescent dye) and detection of cellular p-ERK is performed using an anti-rabbit secondary antibody conjugated to the fluorescent Alexa Fluor 488 dye (Molecular probes). The fluorescence is analysed using the Acumen Explorer (TTP Labtech), a laser-scanning microplate cytometer, and the Alexa Fluor 488 signal is normalised to the PI signal (proportional to cell number).
The EC50 is defined as the concentration at which a given compound achieves a signal half way between the baseline and the maximum response. EC50 values are calculated using the XLfit software package (version 2.0.5).

EC50 [1] [µM] | EC50 [2] [µM] | Structure (SMILES)
< 10 | < 10 | C=COCCONC(=O)c1oc2ccncc2c1Nc1ccc(I)cc1F [Example 11, 3-(2-Fluoro-4-iodo-phenylamino)-furo[3,2-c]pyridine-2-carboxylic acid (2-vinyloxy-ethoxy)-amide]
< 10 | < 10 | O=C(NO[C@H]1CCNC1)c1oc2ccncc2c1Nc1ccc(I)cc1F [Example 38, 3-(2-Fluoro-4-iodo-phenylamino)-furo[3,2-c]pyridine-2-carboxylic acid ((S)-pyrrolidin-3-yloxy)-amide mono formate salt]
< 10 | < 10 | Cc1cncc2c(Nc3ccc(I)cc3F)c(C(=O)NOCCO)oc12 [Example 134, 3-(2-Fluoro-4-iodo-phenylamino)-7-methyl-furo[3,2-c]pyridine-2-carboxylic acid (2-hydroxy-ethoxy)-amide]
< 10 | < 10 | O=C(NOC1CCNCC1)c1oc2ccncc2c1Nc1ccc(I)cc1F [Example 20, 3-(2-Fluoro-4-iodo-phenylamino)-furo[3,2-c]pyridine-2-carboxylic acid (piperidin-4-yloxy)-amide mono formate salt]
< 10 | < 10 | CS(=O)(=O)NCCONC(=O)c1oc2ccncc2c1Nc1ccc(I)cc1F [Example 109, 3-(2-Fluoro-4-iodo-phenylamino)-furo[3,2-c]pyridine-2-carboxylic acid (2-methanesulfonylamino-ethoxy)-amide]
< 10 | < 10 | O=C(NOC[C@H](O)CO)c1oc2cnccc2c1Nc1ccc(I)cc1F [Example 9, 3-(2-Fluoro-4-iodo-phenylamino)-furo[2,3-c]pyridine-2-carboxylic acid ((R)-2,3-dihydroxy-propoxy)-amide]
< 10 | < 10 | O=C(NOCCO)c1oc2c(Cl)cncc2c1Nc1ccc(I)cc1F [Example 39, 7-Chloro-3-(2-fluoro-4-iodo-phenyl-amino)-furo[3,2-c]pyridine-2-carboxylic acid (2-hydroxy-ethoxy)-amide]
< 10 | < 10 | O=C(c1oc2ccncc2c1Nc1ccc(I)cc1F)N1C[C@H](O)[C@@H](O)[C@H]1CO [Example 160, (3-(2-fluoro-4-iodophenylamino)furo[3,2-c]pyridin-2-yl)((2R,3S,4S)-3,4-dihydroxy-2-(hydroxymethyl)pyrrolidin-1-yl)methanone]
< 10 | < 10 | O=C(NOC[C@H](O)CO)c1oc2ccncc2c1Nc1ccc(I)cc1F [Example 5, 3-(2-Fluoro-4-iodo-phenylamino)-furo[3,2-c]pyridine-2-carboxylic acid ((R)-2,3-dihydroxy-propoxy)-amide]
< 10 | < 10 | CC(C)(C)OC(=O)N1CCC(ONC(=O)c2oc3ccncc3c2Nc2ccc(I)cc2F)CC1 [Example 16, 4-{[3-(2-Fluoro-4-iodo-phenylamino)-furo[3,2-c]pyridine-2-carbonyl]aminooxy}-piperidine-1-carboxylic acid tert-butyl ester]
< 10 | < 10 | O=C(NOC1CCOCC1)c1oc2ccncc2c1Nc1ccc(I)cc1F [Example 25, 3-(2-Fluoro-4-iodo-phenylamino)-furo[3,2-c]pyridine-2-carboxylic acid (tetrahydro-pyran-4-yloxy)-amide]
< 10 | < 10 | O=C(NOC[C@H](O)CO)c1oc2ccncc2c1Nc1ccc(Br)cc1F [Example 6, 3-(2-Fluoro-4-bromo-phenylamino)-furo[3,2-c]pyridine-2-carboxylic acid ((R)-2,3-dihydroxy-propoxy)-amide]
< 10 | < 10 | O=C(NOC[C@H](O)CO)c1oc2ccncc2c1Nc1ccc(I)cc1 [Example 12, 3-(4-Iodo-phenylamino)-furo[3,2-c]pyridine-2-carboxylic acid ((R)-2,3-dihydroxy-propoxy)-amide]
< 10 | < 10 | O=C(NO)c1oc2ccncc2c1Nc1ccc(I)cc1F [Example 24, 3-(2-Fluoro-4-iodo-phenylamino)-furo[3,2-c]pyridine-2-carboxylic acid hydroxyamide]
< 10 | < 10 | O=C(NOC1CNC1)c1oc2ccncc2c1Nc1ccc(I)cc1F [Example 41, 3-(2-Fluoro-4-iodo-phenylamino)-furo[3,2-c]pyridine-2-carboxylic acid (azetidin-3-yloxy)-amide mono formate salt]
< 10 | < 10 | O=C(NOC[C@H](O)CO)c1oc2c(Cl)cncc2c1Nc1ccc(I)cc1F [Example 138, 7-Chloro-3-(2-fluoro-4-iodo-phenylamino)-furo[3,2-c]pyridine-2-carboxylic acid ((R)-2,3-dihydroxy-propoxy)-amide]
< 10 | < 10 | O=C(NOC[C@H](O)CO)c1oc2ccncc2c1Nc1cc(F)c(I)cc1F [Example 15, 3-(2,5-Difluoro-4-iodo-phenylamino)-furo[3,2-c]pyridine-2-carboxylic acid ((R)-2,3-dihydroxy-propoxy)-amide]
< 10 | < 10 | C#Cc1ccc(Nc2c(C(=O)NOC[C@H](O)CO)oc3ccncc23)c(F)c1 [Example 7, 3-(4-Ethynyl-2-fluoro-phenylamino)-furo[3,2-c]pyridine-2-carboxylic acid ((R)-2,3-dihydroxy-propoxy)-amide]
< 10 | < 10 | NCCONC(=O)c1oc2ccncc2c1Nc1ccc(I)cc1F [Example 31, 3-(2-Fluoro-4-iodo-phenylamino)-furo[3,2-c]pyridine-2-carboxlic acid (2-amino-ethoxy)-amide]
 | < 10 | CONC(=O)c1oc2ccncc2c1Nc1ccc(I)cc1F [Example 29, 3-(2-Fluoro-4-iodo-phenylamino)-furo[3,2-c]pyridine-2-carboxylic acid methoxy-amide]
 | < 10 | O=C(NCCCONC(=O)c1oc2ccncc2c1Nc1ccc(I)cc1F)c1ccccn1 [Example 46]
 | < 10 | O=C(c1oc2ccncc2c1Nc1ccc(I)cc1F)N1C[C@H](O)C[C@H]1CO [Example 127, (3-(2-fluoro-4-iodophenylamino)furo[3,2-c]pyridin-2-yl)((2S,4R)-4-hydroxy-2-(hydroxymethyl)pyrrolidin-1-yl)methanone]
 | < 10 | O=C(NOCCO)c1oc2ccncc2c1Nc1ccc(Br)cc1Cl [Example 26, 3-(4-Bromo-2-chloro-phenylamino)-furo[3,2-c]pyridine-2-carboxylic acid (2-hydroxy-ethoxy)-amide]
 | < 10 | O=C(NC(CO)CO)c1oc2ccncc2c1Nc1ccc(I)cc1F [Example 68, 3-(2-fluoro-4-iodophenylamino)-N-(1,3-dihydroxypropan-2-yl)furo[3,2-c]pyridine-2-carboxamide]
 | < 10 | C[C@@H](CO)NC(=O)c1oc2ccncc2c1Nc1ccc(I)cc1F [Example 76, 3-(2-fluoro-4-iodophenylamino)-N-((S)-1-hydroxypropan-2-yl)furo[3,2-c]pyridine-2-carboxamide]
 | < 10 | O=C(NCC(O)CO)c1oc2ccncc2c1Nc1ccc(I)cc1F (centres unmarked) [Example 84, 3-(2-fluoro-4-iodophenylamino)-N-(2,3-dihydroxypropyl)furo[3,2-c]pyridine-2-carboxamide]
 | < 10 | CC1(O)CCN(C(=O)c2oc3ccncc3c2Nc2ccc(I)cc2F)C1 (centres unmarked) [Example 120, (3-(2-fluoro-4-iodophenylamino)furo[3,2-c]pyridine-2-yl)(3-hydroxy-3-methylpyrrolidin-1-yl)methanone]
 | < 10 | O=C(NOCCCO)c1oc2ccncc2c1Nc1ccc(I)cc1F [Example 45, (2-Fluoro-4-iodo-phenyl amino)-N-(3-hydroxypropoxy)furo[3,2-c]pyridine-2-carboxamide]
 | < 10 | O=C(NOCCO)c1oc2c(F)cncc2c1Nc1ccc(I)cc1F [Example 139, 7-Fluoro-3-(2-fluoro-4-iodo-phenylamino)-furo[3,2-c]pyridine-2-carboxylic acid (2-hydroxy-ethoxy)-amide]
 | < 10 | O=C(c1oc2ccncc2c1Nc1ccc(I)cc1F)N1C[C@@H](O)[C@H](O)[C@H]1CO [Example 124, (3-(2-fluoro-4-iodophenylamino)furo[3,2-c]pyridin-2-yl)((2R,3R,4R)-3,4-dihydroxy-2-(hydroxymethyl)pyrrolidin-1-yl)methanone]

Structure (SMILES) | EC50 [1] [µM] | EC50 [2] [µM]
CC(C)CONC(=O)c1oc2ccncc2c1Nc1ccc(I)cc1F [Example 42, (2-Fluoro-4-iodo-phenylamino)-N-isobutoxyfuro[3,2-c]pyridine-2-carboxamide] |  | < 10
